Data on 21 molecules can be found in US8415469B2, “Compounds and methods for kinase modulation, and indications therefor” (Plexxikon Inc., priority 2005, dated 2013).

Holding throughout (assay type): biochemical
The target in assay [1] is T1, c-Raf-1 (Homo sapiens, UniProt P04049).
T1 construct: purchased Upstate Biotechnology
Briefly: AlphaScreen kinase assay, c-Raf-1. Conditions: read-out: IC50, activity toward kinase c-Raf-1. In general terms: In Alpha technology, singlet oxygen from a donor bead excites a nearby acceptor bead.

The target in assay [2] is T2, Fak (Homo sapiens, UniProt Q05397).
T2 construct: P1358.pFastBacHtb FAK S411-Q686-X; His6 with pFastBacHTb leader (TEV site) (N); made in house; host or cells: Sf9 (baculovirus)
T2 sequence (Q05397 411-686): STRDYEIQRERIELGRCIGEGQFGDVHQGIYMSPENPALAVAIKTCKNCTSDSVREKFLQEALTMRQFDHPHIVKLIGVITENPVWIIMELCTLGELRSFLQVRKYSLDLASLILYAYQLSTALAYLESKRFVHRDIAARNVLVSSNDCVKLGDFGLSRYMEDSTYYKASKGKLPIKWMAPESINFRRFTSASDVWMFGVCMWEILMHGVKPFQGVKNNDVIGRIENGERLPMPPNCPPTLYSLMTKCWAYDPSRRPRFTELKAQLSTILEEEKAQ
Briefly: AlphaScreen kinase assay, Fak. The following applies: read-out: IC50, activity toward kinase Fak.

Assay [3] concerns the target T3, Flt1 (Homo sapiens, UniProt P17948).
T3 construct: P1826.pETN6 BI-PTP FLT1 M799-D1165-X WT; His6 (N); made in house; host or cells: E. coli (PTP1B co-expressed)
T3 sequence (P17948 with tags, fused parts or gaps): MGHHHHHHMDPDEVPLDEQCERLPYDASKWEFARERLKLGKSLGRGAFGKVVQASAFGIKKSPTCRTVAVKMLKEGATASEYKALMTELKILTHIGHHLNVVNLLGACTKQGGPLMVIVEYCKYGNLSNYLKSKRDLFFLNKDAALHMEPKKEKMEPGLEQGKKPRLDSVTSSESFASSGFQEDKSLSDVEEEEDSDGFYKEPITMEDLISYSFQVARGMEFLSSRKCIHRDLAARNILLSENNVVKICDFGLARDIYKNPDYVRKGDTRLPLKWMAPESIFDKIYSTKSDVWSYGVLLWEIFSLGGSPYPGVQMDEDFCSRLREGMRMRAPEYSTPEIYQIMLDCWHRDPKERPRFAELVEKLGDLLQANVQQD
As to the kind of experiment: AlphaScreen kinase assay, Flt1. The following applies: read-out: IC50, activity toward kinase Flt1.

In assay [4] the target is T4, Jnk1 (Homo sapiens, UniProt P45983).
T4 construct: purchased Upstate Biotechnology
T4 sequence (P45983 whole entry): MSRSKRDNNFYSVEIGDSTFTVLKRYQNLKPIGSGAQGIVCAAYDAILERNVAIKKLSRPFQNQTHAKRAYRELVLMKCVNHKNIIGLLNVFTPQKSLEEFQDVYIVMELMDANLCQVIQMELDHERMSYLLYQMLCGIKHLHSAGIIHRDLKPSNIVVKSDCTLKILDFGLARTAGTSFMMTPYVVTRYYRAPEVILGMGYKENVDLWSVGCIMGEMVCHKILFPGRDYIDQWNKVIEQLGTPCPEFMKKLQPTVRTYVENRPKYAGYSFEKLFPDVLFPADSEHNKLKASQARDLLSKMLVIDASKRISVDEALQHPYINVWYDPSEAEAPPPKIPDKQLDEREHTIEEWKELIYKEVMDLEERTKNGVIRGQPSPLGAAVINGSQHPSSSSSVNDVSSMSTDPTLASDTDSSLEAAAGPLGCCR
Briefly: AlphaScreen kinase assay, Jnk1. The following applies: read-out: IC50, activity toward kinase Jnk1.
Source text: AlphaScreen assay was used to screen additional kinases. The assay is similarly dependent on the phosphorylation of a peptide substrate. In this assay, an antibody that recognizes phosphorylated substrate is bound to an acceptor bead. The peptide substrate is attached to biotin, which binds to a donor head that contains streptavidin. Thus phosphorylated substrate is bound by antibody and streptavidin, bringing the donor and acceptor heads into close proximity when kinase is not inhibited. The donor produces singlet oxygen which results in emission from the acceptor when they are in close proximity. Conversely, when kinase is inhibited, the donor and acceptor beads are not associated and the emission from the acceptor is reduced.
AlphaScreen assays were done using compounds dissolved in DMSO to a concentration of 20 mM. The compounds were diluted accordingly to the desired final concentrations in each sample well, using 1:3 serial dilution for a total of 8 concentration points. Plates were prepared such that each kinase reaction is 20 μl in 1× kinase buffer, 5% DMSO and 10 μM ATP. After incubation of the kinase reaction for 1 hour at room temperature, 5 μl of donor beads in stop buffer (50 mM EDTA in 1× kinase buffer) was added, the sample was mixed and incubated for 20 minutes at room temperature before adding 5 μl of acceptor beads in stop buffer. The samples were incubated for 60 minutes at room temperature and the signal per well was read on AlphaQuest reader.

Assay [5] addresses T5, Src (Homo sapiens, UniProt P12931).
T5 construct: P1144. pET-N6 BI-PTP SRC V86-L536-X; made in house
As to the kind of experiment: AlphaScreen kinase assay, Src. The following applies: read-out: IC50, activity toward kinase Src.

Assay [6] deals with T6, Jak3 (Homo sapiens, UniProt P52333).
T6 sequence (P52333 1-1124): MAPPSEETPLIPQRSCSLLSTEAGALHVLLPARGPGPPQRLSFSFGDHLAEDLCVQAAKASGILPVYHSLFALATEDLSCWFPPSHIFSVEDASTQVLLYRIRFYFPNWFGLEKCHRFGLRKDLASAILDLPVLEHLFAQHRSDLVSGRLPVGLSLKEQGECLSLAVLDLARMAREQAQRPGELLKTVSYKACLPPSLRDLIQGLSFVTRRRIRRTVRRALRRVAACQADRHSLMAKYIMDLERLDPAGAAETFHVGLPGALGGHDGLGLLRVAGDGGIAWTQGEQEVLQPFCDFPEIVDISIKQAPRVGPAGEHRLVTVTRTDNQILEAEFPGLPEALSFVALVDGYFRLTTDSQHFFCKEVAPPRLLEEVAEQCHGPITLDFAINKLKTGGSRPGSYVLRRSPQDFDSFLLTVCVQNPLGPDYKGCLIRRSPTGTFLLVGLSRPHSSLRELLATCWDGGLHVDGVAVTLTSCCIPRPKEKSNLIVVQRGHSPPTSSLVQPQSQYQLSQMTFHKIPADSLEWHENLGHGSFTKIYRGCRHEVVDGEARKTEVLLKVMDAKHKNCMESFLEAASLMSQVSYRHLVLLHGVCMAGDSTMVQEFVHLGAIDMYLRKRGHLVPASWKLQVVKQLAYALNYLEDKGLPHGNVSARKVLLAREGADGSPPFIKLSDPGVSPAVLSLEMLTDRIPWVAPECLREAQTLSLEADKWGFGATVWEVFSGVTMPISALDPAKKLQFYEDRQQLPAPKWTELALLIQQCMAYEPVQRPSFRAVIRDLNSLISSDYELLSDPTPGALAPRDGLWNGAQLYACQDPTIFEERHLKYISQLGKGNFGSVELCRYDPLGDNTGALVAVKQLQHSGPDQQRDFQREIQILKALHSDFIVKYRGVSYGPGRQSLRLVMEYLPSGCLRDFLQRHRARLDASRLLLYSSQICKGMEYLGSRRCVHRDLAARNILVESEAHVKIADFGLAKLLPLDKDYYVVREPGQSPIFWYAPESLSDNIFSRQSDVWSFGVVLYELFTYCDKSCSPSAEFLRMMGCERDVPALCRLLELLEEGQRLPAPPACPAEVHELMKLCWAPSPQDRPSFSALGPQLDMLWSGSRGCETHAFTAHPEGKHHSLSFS
As to the kind of experiment: AlphaScreen kinase assay, Jak3. The following applies: read-out: IC50, activity toward kinase Jak3. The procedure, abridged: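 Here, phosphorylation of a biotin-tagged peptide was sensed by proximity of streptavidin donor and antibody-bearing acceptor beads. Test compounds covered 8 concentrations by 1:3 serial dilution of 20 mM DMSO stocks.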

T5 sequence (P12931 with tags, fused parts or gaps): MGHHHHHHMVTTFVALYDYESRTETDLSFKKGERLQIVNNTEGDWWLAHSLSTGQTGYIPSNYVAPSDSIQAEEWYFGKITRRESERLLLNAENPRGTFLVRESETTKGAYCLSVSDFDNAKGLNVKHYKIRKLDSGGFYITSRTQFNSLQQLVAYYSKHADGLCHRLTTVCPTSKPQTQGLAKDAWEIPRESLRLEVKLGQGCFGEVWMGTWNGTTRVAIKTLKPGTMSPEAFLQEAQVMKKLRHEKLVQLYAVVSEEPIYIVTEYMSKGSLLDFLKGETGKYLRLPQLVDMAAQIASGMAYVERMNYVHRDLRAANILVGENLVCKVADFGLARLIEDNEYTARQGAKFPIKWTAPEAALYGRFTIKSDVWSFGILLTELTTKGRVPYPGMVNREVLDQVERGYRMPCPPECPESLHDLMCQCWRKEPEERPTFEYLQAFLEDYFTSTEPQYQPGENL
T1 sequence (P04049 whole entry): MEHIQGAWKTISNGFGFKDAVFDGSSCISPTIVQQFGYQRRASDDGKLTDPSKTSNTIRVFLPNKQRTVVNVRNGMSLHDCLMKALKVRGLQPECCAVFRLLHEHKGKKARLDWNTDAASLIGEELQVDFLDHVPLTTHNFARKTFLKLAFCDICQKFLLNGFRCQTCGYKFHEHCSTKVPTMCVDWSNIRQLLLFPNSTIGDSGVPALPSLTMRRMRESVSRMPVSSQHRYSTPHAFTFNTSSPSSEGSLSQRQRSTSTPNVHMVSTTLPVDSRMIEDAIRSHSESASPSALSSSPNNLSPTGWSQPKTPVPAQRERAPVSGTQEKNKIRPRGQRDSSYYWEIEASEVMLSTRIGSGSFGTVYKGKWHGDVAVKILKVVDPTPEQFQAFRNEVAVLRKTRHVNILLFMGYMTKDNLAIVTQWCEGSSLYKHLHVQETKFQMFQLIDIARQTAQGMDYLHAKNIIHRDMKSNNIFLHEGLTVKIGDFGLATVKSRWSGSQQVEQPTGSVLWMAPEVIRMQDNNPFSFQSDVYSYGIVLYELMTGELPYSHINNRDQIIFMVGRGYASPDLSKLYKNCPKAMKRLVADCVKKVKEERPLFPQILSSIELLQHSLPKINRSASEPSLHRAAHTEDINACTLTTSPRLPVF

What is called IC50 is the concentration that gives 50% inhibition. Turning to `Nc1cccc(-c2cnc3[nH]cc(C(=O)c4cccc(O)c4F)c3c2)c1` [Compound P-0004, [5-(3-amino-phenyl)-1H-pyrrolo[2,3-b]pyridin-3-yl]-(2-fluoro-3-hydroxy-phenyl)methanone], the 50% inhibitory concentration (IC50) in assay [1], in assay [2], in assay [3], in assay [4], in assay [5] and in assay [6] was not above 10 µM throughout.
As to `Oc1ccc(F)c(C(O)c2c[nH]c3ncc(-c4cccnc4)cc23)c1F` (stereo not shown) [Compound P-0009, 2,4-difluoro-3-[hydroxy-(5-pyridin-3-yl-1H-pyrrolo[2,3-b]pyridin-3-yl)-methyl]-phenol], the IC50 in assay [1], in assay [2], in assay [3], in assay [4], in assay [5] and in assay [6] was not above 10 µM in each case.
Take `NC(=O)c1ccc(-c2ccnc3[nH]cc(C(=O)c4cc(F)ccc4F)c23)cc1` [Compound P-0013]: the concentration for half-maximal inhibition (IC50) in assay [3] and in assay [6] was not above 10 µM each time.
As to `NC(=O)c1ccc(-c2ccnc3[nH]cc(C(=O)c4ccccc4F)c23)cc1` [Compound P-0014], the half-inhibitory concentration (IC50) in assay [6] was not above 10 µM.
Regarding `CS(=O)(=O)c1cccc(-c2cnc3[nH]cc(C(O)c4c(F)ccc(F)c4F)c3c2)c1` (stereo not shown) [Compound P-0020], the 50% inhibitory concentration (IC50) in assay [3] and in assay [6] was not above 10 µM in each case.
Take `Nc1cccc(-c2ccnc3[nH]cc(C(=O)c4ccccc4F)c23)c1` [Compound P-0022]: in assay [6], the IC50 was not above 10 µM.
Consider `O=C(c1ccc(O)cc1)c1c[nH]c2ncc(-c3cccs3)cc12` [Compound P-0024, (4-Hydroxy-phenyl)-(5-thiophen-2-yl-1H-pyrrolo[2,3-b]pyridin-3-yl)-methanone], for which the concentration for half-maximal inhibition (IC50) in assay [1], in assay [2], in assay [3] and in assay [6] was not above 10 µM each time.
As for `O=C(c1cccc(O)c1)c1c[nH]c2nccc(-c3cc(F)cc(F)c3)c12` [Compound P-0039], the half-maximal inhibitory concentration (IC50) in assay [3] and in assay [6] was not above 10 µM throughout.
As for `Cc1ccccc1C(=O)c1c[nH]c2nccc(-c3cccc(N)c3)c12` [Compound P-0044], the IC50 in assay [6] was not above 10 µM.
The same measure, in the same setting: next, `Nc1cccc(-c2ccnc3[nH]cc(C(=O)c4cc(F)ccc4F)c23)c1` [Compound P-0046]: not above 10 µM.
Consider `NC(=O)c1cccc(-c2ccnc3[nH]cc(C(=O)c4cc(F)ccc4F)c23)c1` [Compound P-0049], for which the 50% inhibitory concentration (IC50) in assay [6] is not above 10 µM.
Same read-out and setting: next, `O=C(c1ccccc1F)c1c[nH]c2nccc(-c3ccsc3)c12` [Compound P-0051]: not above 10 µM; `CS(=O)(=O)Nc1cccc(-c2ccnc3[nH]cc(C(=O)c4cc(F)ccc4F)c23)c1` [Compound P-0060]: not above 10 µM; `O=C(c1cc(F)ccc1F)c1c[nH]c2nccc(-c3cccnc3)c12` [Compound P-0063]: not above 10 µM.
For the molecule `CC(=O)Nc1cccc(-c2ccnc3[nH]cc(C(=O)c4ccccc4F)c23)c1` [Compound P-0070], in assay [6], the half-maximal inhibitory concentration (IC50) is not above 10 µM.
As to `OC(c1c(F)ccc(F)c1F)c1c[nH]c2ncc(-c3cccnc3)cc12` (stereo not shown) [Compound P-0101], the IC50 in assay [3] and in assay [6] was not above 10 µM throughout.
With `Fc1cc(F)cc(-c2ccnc3[nH]cc(Sc4ccccn4)c23)c1` [Compound P-0106], in assay [6], the half-maximal inhibitory concentration (IC50) is not above 10 µM.
On to `Cc1ccccc1C(=O)c1c[nH]c2nccc(-c3cccc(NS(C)(=O)=O)c3)c12` [Compound P-0109], for which the IC50 in assay [6] was not above 10 µM.
For `Oc1ccc(F)c(Cc2c[nH]c3ncc(Br)cc23)c1F` [Compound P-0122, 3-(5-Bromo-1H-pyrrolo[2,3-b]pyridin-3-ylmethyl)-2,4-difluoro-phenol], the IC50 in assay [1] and in assay [6] was not above 10 µM each time.
As for `Cc1ccc(F)cc1C(=O)c1c[nH]c2nccc(-c3cccc(NS(C)(=O)=O)c3)c12` [Compound P-0124], the half-maximal inhibitory concentration (IC50) in assay [6] is not above 10 µM.
Take `CS(=O)(=O)c1cccc(-c2ccnc3[nH]cc(C(=O)c4cc(F)ccc4F)c23)c1` [Compound P-0171]: the half-inhibitory concentration (IC50) in assay [5] and in assay [6] was not above 10 µM in each case.
